Experimental data as given in paper PMC11079024, “Identification of a family of species-selective complex I inhibitors as potential anthelmintics” (Nature Communications, 2024).

Tested on: anthelmintic/nematicide-resistant C. elegans mutant strains
Assay: microbe, parasite or virus in culture
From the text: In addition to the Caenorhabditis elegans wild-type N2 strain, this work included the following C. elegans strains: CB1003 (kynu-1(e1003) X); anthelmintic-resistant strains—CB3474 (ben-1(e1880) III), CB193 (unc-29(e193) I), HY496 (bre-1(ye4) IV), RB2119 (acr-23(ok2804) V), JD608 (avr-14(ad1302) I; avr-15(ad1051) V; glc-1 (pk54) V), NM1968 (slo-1(js379) V), RP2635 (mev-1(tr355) III); benzimidazole-resistant CRISPR strains—ECA882 (ben-1(ean64) III), ECA917 (ben-1(ean98) III), ECA1075 (ben-1(ean143) III), ECA1080 (ben-1(ean148) III). This work also featured several additional free-living nematode strains: C. briggsae strain AF16, P. pacificus strain PS312, and P. hermaphrodita strain B178. The four CRISPR-generated benzimidazole-resistant C. elegans mutants were generously provided by Prof. Erik Andersen (Johns Hopkins University); PS312 and B178 were generously provided by Prof. Peter Roy (University of Toronto); all other strains were obtained from the Caenorhabditis Genetics Center (CGC, University of Minnesota). All strains were cultured and propagated at 20 °C on NGM (nematode growth medium) agar plates seeded with E. coli OP50 (Stiernagle, 2006)[56].
Liquid development and viability assays were adapted from a previously established chemical screening protocol (Burns et al.)[24]. In brief, a saturated culture of E. coli HB101 was concentrated 2-fold in liquid NGM and 40 μL of this suspension was distributed to each well of a 96-well flat-bottom culture plate. 0.5 μL chemical solution (or DMSO alone) was added to each well (1% DMSO v/v) using either a multi-channel pipette or a pinning tool (V&P Scientific). L1 worms synchronized from an embryo preparation performed the day prior were diluted to a concentration of ~2 worms/μL in M9 buffer; 10 μL worm suspension was then added to each well. Culture plates were sealed with parafilm and placed in a plastic container lined with wet paper towels to prevent evaporation. Containers were then incubated for 6 days at 20 °C with shaking at 165 rpm. Following incubation, 300 μL M9 was added to each well to decrease the turbidity of the HB101-NGM suspension. Single images of each microplate well were then taken on a Nikon Ti Eclipse inverted microscope (Nikon NIS Elements AR). Images were processed using Python scripts to isolate worm-associated pixels from background. Scores of worm development and viability were determined as the sum of worm-associated pixels in each well. Development/viability scores for each well were divided by the development /viability scores for the corresponding DMSO controls, resulting in a relative viability value for each chemical. At least three biological replicates were performed for each dose-response experiment; relative viability values were averaged across replicates.
Supplementary Table 2. Sensitivity of anthelmintic/nematicide-resistant strains to Class A, B, and C
benzimidazole complex I inhibitors.
LC50s were estimated from fitted dose-
response curves; all dose response data are the mean of at least three biological replicates.
Supplementary Table 2. Davie et al.

COC(=O)Nc1nc2ccc(Sc3ccccc3)cc2[nH]1 [fenbendazole, reference compound]
0.934: C. elegans L1 relative development & viability (score 0-1 relative to DMSO controls) (62.5 µM, strain ECA1075, F167Y (ben-1)) | C. elegans L1 relative development & viability (ECA1075 F167Y (ben-1), 62.5 µM, […])
0.845: C. elegans L1 relative development & viability (score 0-1 relative to DMSO controls) (62.5 µM, strain CB3474, G104D (ben-1)) | C. elegans L1 relative development & viability (CB3474 G104D (ben-1), 62.5 µM, […])
0.835: C. elegans L1 relative development & viability (score 0-1 relative to DMSO controls) (250 µM, strain ECA917, F200Y (ben-1)) | C. elegans L1 relative development & viability (ECA917 F200Y (ben-1), 250 µM, […])
0.599: C. elegans L1 relative development & viability (score 0-1 relative to DMSO controls) (500 µM, strain ECA1075, F167Y (ben-1)) | C. elegans L1 relative development & viability (ECA1075 F167Y (ben-1), 500 µM, […])
0.720: C. elegans L1 relative development & viability (score 0-1 relative to DMSO controls) (250 µM, strain CB3474, G104D (ben-1)) | C. elegans L1 relative development & viability (CB3474 G104D (ben-1), 250 µM, […])
0.597: C. elegans L1 relative development & viability (score 0-1 relative to DMSO controls) (500 µM, strain ECA1080, E198A (ben-1)) | C. elegans L1 relative development & viability (ECA1080 E198A (ben-1), 500 µM, […])
0.759: C. elegans L1 relative development & viability (score 0-1 relative to DMSO controls) (125 µM, strain ECA1080, E198A (ben-1)) | C. elegans L1 relative development & viability (ECA1080 E198A (ben-1), 125 µM, […])
0.957: C. elegans L1 relative development & viability (score 0-1 relative to DMSO controls) (15.6 µM, strain ECA1080, E198A (ben-1)) | C. elegans L1 relative development & viability (ECA1080 E198A (ben-1), 15.6 µM, […])
0.686: C. elegans L1 relative development & viability (score 0-1 relative to DMSO controls) (250 µM, strain ECA1080, E198A (ben-1)) | C. elegans L1 relative development & viability (ECA1080 E198A (ben-1), 250 µM, […])
0.784: C. elegans L1 relative development & viability (score 0-1 relative to DMSO controls) (125 µM, strain ECA917, F200Y (ben-1)) | C. elegans L1 relative development & viability (ECA917 F200Y (ben-1), 125 µM, […])
1.000: C. elegans L1 relative development & viability (score 0-1 relative to DMSO controls) (1 µM, strain CB3474, G104D (ben-1)) | C. elegans L1 relative development & viability (score 0-1 relative to DMSO controls) (1 µM, strain ECA917, F200Y (ben-1)) | C. elegans L1 relative development & viability (score 0-1 relative to DMSO controls) (1 µM, strain ECA1075, F167Y (ben-1)) | C. elegans L1 relative development & viability (score 0-1 relative to DMSO controls) (1 µM, strain ECA1080, E198A (ben-1)) | C. elegans L1 relative development & viability (score 0-1 relative to DMSO controls) (2 µM, strain CB3474, G104D (ben-1)) | C. elegans L1 relative development & viability (score 0-1 relative to DMSO controls) (2 µM, strain ECA917, F200Y (ben-1)) | C. elegans L1 relative development & viability (score 0-1 relative to DMSO controls) (2 µM, strain ECA1075, F167Y (ben-1)) | C. elegans L1 relative development & viability (score 0-1 relative to DMSO controls) (2 µM, strain ECA1080, E198A (ben-1)) | C. elegans L1 relative development & viability (score 0-1 relative to DMSO controls) (3.9 µM, strain CB3474, G104D (ben-1)) | C. elegans L1 relative development & viability (score 0-1 relative to DMSO controls) (3.9 µM, strain ECA917, F200Y (ben-1)) | C. elegans L1 relative development & viability (score 0-1 relative to DMSO controls) (3.9 µM, strain ECA1075, F167Y (ben-1)) | C. elegans L1 relative development & viability (score 0-1 relative to DMSO controls) (3.9 µM, strain ECA1080, E198A (ben-1)) | C. elegans L1 relative development & viability (score 0-1 relative to DMSO controls) (15.6 µM, strain CB3474, G104D (ben-1)) | C. elegans L1 relative development & viability (score 0-1 relative to DMSO controls) (15.6 µM, strain ECA917, F200Y (ben-1)) | C. elegans L1 relative development & viability (score 0-1 relative to DMSO controls) (15.6 µM, strain ECA1075, F167Y (ben-1)) | C. elegans L1 relative development & viability (score 0-1 relative to DMSO controls) (31.3 µM, strain CB3474, G104D (ben-1)) | C. elegans L1 relative development & viability (score 0-1 relative to DMSO controls) (31.3 µM, strain ECA917, F200Y (ben-1)) | C. elegans L1 relative development & viability (score 0-1 relative to DMSO controls) (31.3 µM, strain ECA1075, F167Y (ben-1)) | C. elegans L1 relative development & viability (score 0-1 relative to DMSO controls) (31.3 µM, strain ECA1080, E198A (ben-1)) | C. elegans L1 relative development & viability (score 0-1 relative to DMSO controls) (62.5 µM, strain ECA917, F200Y (ben-1)) | C. elegans L1 relative development & viability (score 0-1 relative to DMSO controls) (62.5 µM, strain ECA1080, E198A (ben-1)) | C. elegans L1 relative development & viability (CB3474 G104D (ben-1), 1 µM, score 0-1 relative to DMSO, values >1 set to 1) | C. elegans L1 relative development & viability (CB3474 G104D (ben-1), 2 µM, score 0-1 relative to DMSO, values >1 set to 1) | C. elegans L1 relative development & viability (CB3474 G104D (ben-1), 3.9 µM, score 0-1 relative to DMSO, values >1 set to 1) | C. elegans L1 relative development & viability (CB3474 G104D (ben-1), 15.6 µM, score 0-1 relative to DMSO, values >1 set to 1) | C. elegans L1 relative development & viability (CB3474 G104D (ben-1), 31.3 µM, score 0-1 relative to DMSO, values >1 set to 1) | C. elegans L1 relative development & viability (ECA917 F200Y (ben-1), 1 µM, score 0-1 relative to DMSO, values >1 set to 1) | C. elegans L1 relative development & viability (ECA917 F200Y (ben-1), 2 µM, score 0-1 relative to DMSO, values >1 set to 1) | C. elegans L1 relative development & viability (ECA917 F200Y (ben-1), 3.9 µM, score 0-1 relative to DMSO, values >1 set to 1) | C. elegans L1 relative development & viability (ECA917 F200Y (ben-1), 15.6 µM, score 0-1 relative to DMSO, values >1 set to 1) | C. elegans L1 relative development & viability (ECA917 F200Y (ben-1), 31.3 µM, score 0-1 relative to DMSO, values >1 set to 1) | C. elegans L1 relative development & viability (ECA917 F200Y (ben-1), 62.5 µM, score 0-1 relative to DMSO, values >1 set to 1) | C. elegans L1 relative development & viability (ECA1075 F167Y (ben-1), 1 µM, score 0-1 relative to DMSO, values >1 set to 1) | C. elegans L1 relative development & viability (ECA1075 F167Y (ben-1), 2 µM, score 0-1 relative to DMSO, values >1 set to 1) | C. elegans L1 relative development & viability (ECA1075 F167Y (ben-1), 3.9 µM, score 0-1 relative to DMSO, values >1 set to 1) | C. elegans L1 relative development & viability (ECA1075 F167Y (ben-1), 15.6 µM, score 0-1 relative to DMSO, values >1 set to 1) | C. elegans L1 relative development & viability (ECA1075 F167Y (ben-1), 31.3 µM, score 0-1 relative to DMSO, values >1 set to 1) | C. elegans L1 relative development & viability (ECA1080 E198A (ben-1), 1 µM, score 0-1 relative to DMSO, values >1 set to 1) | C. elegans L1 relative development & viability (ECA1080 E198A (ben-1), 2 µM, score 0-1 relative to DMSO, values >1 set to 1) | C. elegans L1 relative development & viability (ECA1080 E198A (ben-1), 3.9 µM, score 0-1 relative to DMSO, values >1 set to 1) | C. elegans L1 relative development & viability (ECA1080 E198A (ben-1), 31.3 µM, score 0-1 relative to DMSO, values >1 set to 1) | C. elegans L1 relative development & viability (ECA1080 E198A (ben-1), 62.5 µM, score 0-1 relative to DMSO, values >1 set to 1)
0.716: C. elegans L1 relative development & viability (score 0-1 relative to DMSO controls) (500 µM, strain ECA917, F200Y (ben-1)) | C. elegans L1 relative development & viability (ECA917 F200Y (ben-1), 500 µM, […])
0.790: C. elegans L1 relative development & viability (score 0-1 relative to DMSO controls) (125 µM, strain CB3474, G104D (ben-1)) | C. elegans L1 relative development & viability (CB3474 G104D (ben-1), 125 µM, […])
0.665: C. elegans L1 relative development & viability (score 0-1 relative to DMSO controls) (125 µM, strain ECA1075, F167Y (ben-1)) | C. elegans L1 relative development & viability (ECA1075 F167Y (ben-1), 125 µM, […])
0.538: C. elegans L1 relative development & viability (score 0-1 relative to DMSO controls) (500 µM, strain CB3474, G104D (ben-1)) | C. elegans L1 relative development & viability (CB3474 G104D (ben-1), 500 µM, […])
0.796: C. elegans L1 relative development & viability (score 0-1 relative to DMSO controls) (250 µM, strain ECA1075, F167Y (ben-1)) | C. elegans L1 relative development & viability (ECA1075 F167Y (ben-1), 250 µM, […])
